Assay results from US8466167B2, “Compounds and compositions as TLR activity modulators” (IRM LLC, priority 2008, dated 2013).
pEC50: −log10 of the molar value. Like-named read-outs stand apart in the source and are kept apart here. Each block holds one compound with its values, some of them ahead of it.

Columns and labels:
human TLR8 = biological target: T1, human TLR8 (Homo sapiens, UniProt Q9NR97); assay: Reporter gene assay, HEK293-TLR8 (NF-kB-driven luciferase); format: cell-based
T1 construct: expressed in transfected cells; host or cells: HEK 293
T1 sequence (Q9NR97 27-1041): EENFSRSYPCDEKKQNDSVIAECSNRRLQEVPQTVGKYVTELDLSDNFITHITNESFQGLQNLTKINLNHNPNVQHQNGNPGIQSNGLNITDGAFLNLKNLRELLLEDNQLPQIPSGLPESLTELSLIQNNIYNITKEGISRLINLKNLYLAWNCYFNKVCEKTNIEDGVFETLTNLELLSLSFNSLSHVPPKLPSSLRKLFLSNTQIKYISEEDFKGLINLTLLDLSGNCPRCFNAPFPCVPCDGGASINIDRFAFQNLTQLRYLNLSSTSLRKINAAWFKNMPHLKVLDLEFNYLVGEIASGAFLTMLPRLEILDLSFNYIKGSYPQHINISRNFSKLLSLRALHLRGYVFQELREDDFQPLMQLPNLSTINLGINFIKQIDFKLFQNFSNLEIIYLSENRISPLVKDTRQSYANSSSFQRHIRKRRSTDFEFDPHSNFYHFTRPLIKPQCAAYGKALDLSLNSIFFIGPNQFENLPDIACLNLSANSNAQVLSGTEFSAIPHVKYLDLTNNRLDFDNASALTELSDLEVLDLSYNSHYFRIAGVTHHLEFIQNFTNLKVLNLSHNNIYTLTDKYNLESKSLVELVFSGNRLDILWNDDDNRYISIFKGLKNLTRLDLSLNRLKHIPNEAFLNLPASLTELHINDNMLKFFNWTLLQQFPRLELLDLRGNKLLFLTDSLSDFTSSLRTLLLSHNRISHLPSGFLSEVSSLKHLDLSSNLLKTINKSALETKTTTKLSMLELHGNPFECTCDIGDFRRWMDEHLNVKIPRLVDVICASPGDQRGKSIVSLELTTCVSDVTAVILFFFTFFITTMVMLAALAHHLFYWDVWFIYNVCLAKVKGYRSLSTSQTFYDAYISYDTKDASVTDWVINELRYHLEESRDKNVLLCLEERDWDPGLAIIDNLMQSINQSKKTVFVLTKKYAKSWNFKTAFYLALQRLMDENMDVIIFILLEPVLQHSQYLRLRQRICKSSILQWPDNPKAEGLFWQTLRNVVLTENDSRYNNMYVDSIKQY
Protocol: (§1) Human embryonic kidney 293 (HEK 293) cells are stably transfected with human TLR7 or TLR8 and an NF-kB-driven luciferase reporter vector (pNifty-Luciferase). As a control assay, normal Hek293 transfected with pNifty-Luc are used. Cells are cultured in DMEM supplemented with 2 mM L-glutamine, 10% heart inactivated FBS, 1% penicillin and streptomycin, 2 μg/ml puromycin (InvivoGen #ant-pr-5) and 5 μg/ml of blasticidin (Invitrogen #46-1120). Bright-Glo™ Luciferase assay buffer and substrate are supplied by Promega #E263B and #E264B (assay substrate and buffer respectively). 384 well clear-bottom plates are supplied by Greiner bio-one (#789163-G) and are GNF custom bar-coded plates.
(§2) Cells are plated at 25,000 cells/well in 384-well plates in a final volume of 50 μl of media. Cells are allowed to adhere to the plates after overnight (18 hours) culture at 37° C. 5% CO2. Serially diluted experimental and positive control compounds are then dispensed to each well and incubated for 7 hours at 37° C. 5% CO2. Cells stimulated with DMSO alone also serve as negative controls. After the incubation, 30 μl of the pre-mix assay buffer and substrate buffer are added to each well according to manufacturer's instructions. The luminescence signal is read on a CLIPR machine with an integration time of 20 seconds per plate.
(§3) Dose response curves are generated for each compound and EC50 values were determined as the concentration that gives 50% of the maximal signal.

human PBMC = assay: Human peripheral blood mononuclear cell assay, IL-6 (IL-6 hPBMC); format: cell-based; conditions: IL-6 levels
Protocol: The bioactivity of the described compounds are tested in the human peripheral blood assay (human PBMC) using a panel of independent normal human donors according to approved guidelines by the institutional review committee. Human PBMC are isolated from freshly peripheral blood using a Ficoll density gradient (GE healthcare 17-1440-03). 30-35 mLs of peripheral human blood are layered onto 15 mLs of Ficoll in 50 ml conical tubes, followed by centrifugation at 1800 rpm (Eppendorf Centrifuge 5810R with biohazard caps over the tube buckets) at room temperature for 30 minutes with no acceleration and no brake. The buffy layers are then collected and transferred onto new 50 ml conical tubes and washed twice in complete media consisting of RAMI 1640 (11875085 from Invitrogen Corporation, Carlsbad, Calif.) supplemented with 10% heat inactivated fetal bovine serum (Gibco 10099-141), 1% Pen-Strep (Gibco#15140-122), 1 mM non essential amino acids (Gibco#11140-050), 1 mM sodium pyruvate (Gibco#11360-070), 2 mM L-Glutamine (Gibco#25030-081) and 1 mM HEPES (Gibco#15630-080). Viable cells are then counted using trypan blue staining, plated in 96 well flat bottom plates (Becton Dickinson #353070) at 2×10^5 cells per well in 200 μl total volume of complete media. Compounds are then added in a 10 point dose response format starting at 100 μM, 3 fold dilution. Negative controls wells received equal concentration of DMSO. Culture supernatants are collected after 18-24 hours incubation at 37° C., 5% CO2, stored at −20° C. until further use.
IL-6 levels in the culture supernatants are measured using a Luminex kit (Biorad). Data analysis is performed using Prism software from GraphPad (San Diego, Calif.). Dose response curves are generated for each compound and EC50 values are determined as the concentration that gives 50% of the maximal signal.

human TLR7 = biological target: T2, human TLR7 (Homo sapiens, UniProt Q9NYK1); assay: Reporter gene assay, HEK293-TLR7 (NF-kB-driven luciferase); format: cell-based; conditions: HEK293-TLR7; read-out: EC50 in HEK293-TLR7 assay
T2 construct: expressed in transfected cells; host or cells: HEK 293
T2 sequence (Q9NYK1 27-1049): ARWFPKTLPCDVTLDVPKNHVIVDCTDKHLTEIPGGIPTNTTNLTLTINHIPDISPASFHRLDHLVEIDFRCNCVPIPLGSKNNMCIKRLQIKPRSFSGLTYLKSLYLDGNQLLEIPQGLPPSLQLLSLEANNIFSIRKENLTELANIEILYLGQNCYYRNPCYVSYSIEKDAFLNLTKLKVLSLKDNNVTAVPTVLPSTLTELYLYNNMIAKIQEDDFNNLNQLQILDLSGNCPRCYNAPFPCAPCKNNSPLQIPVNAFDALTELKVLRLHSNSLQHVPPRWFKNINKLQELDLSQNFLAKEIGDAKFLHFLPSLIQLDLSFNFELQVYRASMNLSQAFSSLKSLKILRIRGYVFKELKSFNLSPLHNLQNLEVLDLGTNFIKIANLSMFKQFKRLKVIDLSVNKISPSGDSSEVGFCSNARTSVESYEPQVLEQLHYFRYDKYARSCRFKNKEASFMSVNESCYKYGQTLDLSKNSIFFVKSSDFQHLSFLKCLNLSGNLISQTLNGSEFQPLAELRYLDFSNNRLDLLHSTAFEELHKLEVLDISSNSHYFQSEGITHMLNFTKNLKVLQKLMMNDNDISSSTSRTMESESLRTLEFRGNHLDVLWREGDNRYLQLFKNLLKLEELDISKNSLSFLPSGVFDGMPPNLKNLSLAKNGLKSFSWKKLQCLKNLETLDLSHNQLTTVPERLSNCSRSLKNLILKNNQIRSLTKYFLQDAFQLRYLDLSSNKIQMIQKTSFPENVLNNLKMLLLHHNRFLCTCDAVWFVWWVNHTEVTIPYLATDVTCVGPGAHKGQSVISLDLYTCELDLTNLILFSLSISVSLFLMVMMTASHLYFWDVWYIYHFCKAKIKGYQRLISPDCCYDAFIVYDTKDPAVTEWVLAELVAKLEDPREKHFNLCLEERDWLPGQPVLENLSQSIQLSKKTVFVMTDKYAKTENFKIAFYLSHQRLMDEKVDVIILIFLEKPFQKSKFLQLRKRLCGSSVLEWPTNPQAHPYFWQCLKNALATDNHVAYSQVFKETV
Protocol: as §1, §2, §3

[1] = test system: N. meningitidis serogroup B strain NZ98; assay: In vivo enhancement of immune response to 3MenB vaccine, serum bactericidal antibody (SBA) titer; conditions: 100 μg compound with 3MenB/MF59, NZ98 strain
Protocol: In a second experiment, the dose response of one compound, Example No. 47, was tested using the same protocol. […] The SBA titers were measured in all cases using the standard CFU method. The dose of each compound in μg is indicated on the left of FIG. 2.
FIG. 5 summarizes the data from the six total experiments. A titer of >1000 correlates with immunization providing protection against the pathogen tested in the SBA titer (i.e., the NZ/98 N. meningitidis serogroup B strain).

[2] = TLR-8 stimulation, read-out: Human TLR-8 EC50
[3] = HEK293-TLR8, read-out: EC50 in HEK293-TLR8 assay

pEC50 (human TLR8; [2]): < 4.00
SMILES: Cc1ccc2c(c1)nc(N)c1ncc(CCc3ccc(C(C)N4CCN(C)CC4)cc3)cc12 (stereo not shown) [Example 188, 8-methyl-2-(4-(1-(4-methylpiperazin-1-yl)ethyl)phenethyl)benzo[f][1,7]naphthyridin-5-amine]

pEC50 (human TLR8; [2]): 4.82
SMILES: Cc1ccc2c(c1)nc(N)c1ncc(CCc3ccc(CN4CCCC4)cc3)cc12 [Example 177, 8-methyl-2-(4-(pyrrolidin-1-ylmethyl)phenethyl)benzo[f][1,7]naphthyridin-5-amine]

pEC50 (human TLR8; [2]): 5.21
SMILES: Cc1ccc2c(c1)nc(N)c1ncc(CCc3ccc(C(C)NC(C)CN(C)C)cc3)cc12 (stereo not shown) [Example 189, N^2-(1-(4-(2-(5-amino-8-methylbenzo[f][1,7]naphthyridin-2-yl)ethyl)phenyl)ethyl)-N^1,N^1-dimethylpropane-1,2-diamine]

pEC50 (human TLR8; [3]): 4.89
pEC50 (human TLR7): 5.06
SMILES: CCc1cnc2c(N)nc3ccccc3c2c1 [Example 30, 2-ethylbenzo[f][1,7]naphthyridin-5-amine]
pEC50 (human PBMC): 5.64

pEC50 (human TLR7): 5.61
SMILES: Nc1nc2ccccc2c2cc(CCc3ccccc3)cnc12 [Example 33, 2-phenethylbenzo[f][1,7]naphthyridin-5-amine]
pEC50 (human PBMC): 5.64

pEC50 (human TLR8; [3]): 4.85
pEC50 (human TLR7): < 4.00
SMILES: Nc1nc2ccccc2c2cccnc12 [Example 1, Benzo[f][1,7]naphthyridin-5-amine]
pEC50 (human PBMC): 6.08

pEC50 (human TLR8; [2]): 4.96
SMILES: Cc1ccc2c(c1)nc(N)c1ncc(CCc3ccc(C(C)NCCN(C)C)cc3)cc12 (stereo not shown) [Example 186, N^1-(1-(4-(2-(5-amino-8-methylbenzo[f][1,7]naphthyridin-2-yl)ethyl)phenyl)ethyl)-N^2,N^2-dimethylethane-1,2-diamine]

pEC50 (human TLR8; [2]): 5.28
SMILES: Cc1ccc2c(c1)nc(N)c1ncc(CCc3ccc(C(C)N4CCC(O)C4)cc3)cc12 (stereo not shown) [Example 195, 1-(1-(4-(2-(5-amino-8-methylbenzo[f][1,7]naphthyridin-2yl)ethyl)phenyl)ethyl)pyrrolidin-3-ol]

pEC50 (human TLR8; [2]): 5.59
SMILES: Cc1ccc2c(c1)nc(N)c1ncc(CCc3ccc(C(C)(C)N)cc3)cc12 [Example 196, 2-(4-(2-aminopropan-2-yl)phenethyl)-8-methylbenzo[f][1,7]naphthyridin-5-amine]

pEC50 (human TLR8; [2]): 5.22
SMILES: CCN(CC)CCNC(C)c1ccc(CCc2cnc3c(N)nc4cc(C)ccc4c3c2)cc1 (stereo not shown) [Example 191, N^1-(1-(4-(2-(5-amino-8-methylbenzo[f][1,7]naphthyridin-2-yl)ethyl)phenyl)ethyl)-N^2,N^2-diethylethane-1,2-diamine]

pEC50 (human TLR8; [2]): 4.09
SMILES: Cc1ccc2c(c1)nc(N)c1ncc(CCc3ccc(C(C)NCCC(=O)O)cc3)cc12 (stereo not shown) [Example 187, 3-(1-(4-(2-(5-amino-8-methylbenzo[f][1,7]naphthyridin-2-yl)ethyl)phenyl)ethylamino)propanoic acid]

pEC50 (human TLR8; [2]): 5.37
SMILES: Cc1ccc2c(c1)nc(N)c1ncc(CCc3ccc(C(C)NCCc4ccncc4)cc3)cc12 (stereo not shown) [Example 190, 8-methyl-2-(4-(1-(2-(pyridin-4-yl)ethylamino)ethyl)phenethyl)benzo[f][1,7]naphthyridin-5-amine]

pEC50 (human TLR8; [3]): 5.05
pEC50 (human TLR7): 4.80
SMILES: Cc1ccc2c(c1)nc(N)c1ncccc12 [Example 5, 8-methylbenzo[f][1,7]naphthyridin-5-amine]
pEC50 (human PBMC): 6.40

SMILES: COc1ccc(CCc2cnc3c(N)nc4cc(C)ccc4c3c2)c(C)c1 [Example 49, 2-(4-methoxy-2-methylphenethyl)-8-methylbenzo[f][1,7]naphthyridin-5-amine]
protective response in the mice (SBA titer of >1000 correlates with protection) [1]: protective response

SMILES: Cc1ccc2c(c1)nc(N)c1ncc(CCc3ccc(N(C)C)cc3)cc12 [Example 169, 2-(4-(dimethylamino)phenethyl)-8-methylbenzo[f][1,7]naphthyridin-5-amine]
protective response in the mice (SBA titer of >1000 correlates with protection) [1]: protective response

pEC50 (human TLR8; [3]): 4.43
SMILES: Nc1nc2cc(F)ccc2c2cccnc12 [Example 14, 8-fluorobenzo[f][1,7]naphthyridin-5-amine]
pEC50 (human PBMC): 5.20

pEC50 (human TLR8; [2]): 4.62
SMILES: Cc1ccc2c(c1)nc(N)c1ncc(CCc3ccc(C(C)N4CCC(C(=O)O)C4)cc3)cc12 (stereo not shown) [Example 193, 1-(1-(4-(2-(5-amino-8-methylbenzo[f][1,7]naphthyridin-2-yl)ethyl)phenyl)ethyl)pyrrolidine-3-carboxylic acid]
